PubChem BioAssay AID1421 (Emory University Molecular Libraries Screening Center, 2008)
Activity calls are given as the source filed them. The rule behind the calls is not given here.

These compounds were tested against Prostaglandin E2 receptor EP2 subtype (Homo sapiens) (UniProt P43116) (assay: compounds shifting PGE2 potency at EP2 – cell-based, human EP2, PGE2 EC50 shift, dose response (AID 1421)). Settings: EP2-expressing cells, PGE2 EC50 shift by compound.
Prostaglandin E2 receptor EP2 subtype (Homo sapiens), sequence (P43116 whole entry, looked up): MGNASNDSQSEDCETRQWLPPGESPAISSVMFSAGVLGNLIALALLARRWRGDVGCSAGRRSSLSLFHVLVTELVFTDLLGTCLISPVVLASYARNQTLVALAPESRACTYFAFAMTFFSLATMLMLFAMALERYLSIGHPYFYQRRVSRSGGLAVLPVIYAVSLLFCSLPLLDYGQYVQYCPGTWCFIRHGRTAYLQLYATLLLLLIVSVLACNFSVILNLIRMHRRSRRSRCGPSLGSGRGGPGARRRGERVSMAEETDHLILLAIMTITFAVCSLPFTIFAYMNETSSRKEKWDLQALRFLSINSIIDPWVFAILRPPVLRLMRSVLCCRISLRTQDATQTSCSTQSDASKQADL

SMILES	outcome
Cc1ccc(C)c(NC(=S)N(Cc2ccco2)C(C)c2cccs2)c1 (stereo not drawn)	active
CC12CCC(C(=O)N(CSC(=S)N/N=C\c3ccccc3Cl)C1=O)C2(C)C (stereo not drawn)	active
CC(C)Cc1nc(N2CCCCC2)c(C#N)c2c1CCC2	active
O=c1c2ccccc2nc2n1C1(CCCCC1)Cc1ccccc1-2	active
CC(C)Oc1nc(-c2ccccc2O)nc2ccccc12	active
Cc1cc(C)cc(C(=N)c2ccccc2Cc2cccc3ccccc23)c1	active
FC(F)(F)c1cc(-c2ccccc2)nc2nc(N3CCOCC3)sc12	active
CCc1ccc(NC(=S)N(Cc2ccccc2)Cc2ccccn2)cc1	active
CCCOc1ccc(Cl)cc1CNc1ccccc1	active
CCC1COC(c2cccn2Cc2ccc(Cl)cc2)=N1 (stereo not drawn)	active
CCCSc1ncnc2c1oc1ccccc12	active
COc1cc(-c2nc(-c3cccc(C)c3)no2)cc(OC)c1OC	active
COc1ccc(-c2nc(NC(C)=O)sc2-c2ccccc2)cc1	active

Same assay, conditions: EP2-expressing cells, PGE2 EC50 shift by compound; measured here: PGE2 EC50 at 6.7 uM compound

SMILES	PGE2 EC50 with compound
COc1ccc(C2CC(c3cccs3)=NN2C(=O)c2ccc(Br)o2)cc1 (stereo not drawn)	1.25 nM
CCOC(=O)Cc1csc(NC(=O)c2cc(=O)c3ccccc3o2)n1	1.36 nM
Cc1cnn(-c2nc(-c3ccccc3)cc(-c3ccccc3)n2)c1	0.95 nM
Cc1ccc(C)c(NC(=S)N(Cc2ccco2)C(C)c2cccs2)c1 (stereo not drawn)	0.7 nM
Cc1cccc(OCC(=O)Nc2ccccc2-c2ccccc2)c1	0.63 nM
COc1ccccc1/C=C(/C(=O)OCC(=O)Nc1ccccc1C(C)C)c1ccccc1	1.1 nM
Cc1ccccc1C(=O)Nc1ccccc1Sc1ccccc1	0.86 nM
CC12CCC(C(=O)N(CSC(=S)N/N=C\c3ccccc3Cl)C1=O)C2(C)C (stereo not drawn)	1.7 nM
Nc1ccccc1CCCC(=O)O	0.98 nM
O=C(Nc1ccccc1N1CCCC1)c1cc2ccccc2o1	1.46 nM
Cc1cc(Br)c2nc3c(c(C(=O)O)c2c1)CCCCC3	2.78 nM
CCN(CC)C(=O)CN(c1cc2c(cc1OC)oc1ccccc12)S(=O)(=O)c1ccc(C)cc1	1.2 nM
C=CCn1c(=O)c2c3c(sc2n2c(Nc4ccc(OC)cc4)nnc12)CCCC3	0.77 nM
CC(C)Cc1nc(N2CCCCC2)c(C#N)c2c1CCC2	1.37 nM
Cc1cc(O)c(C=O)c2c1C(=O)Oc1c(COC(=O)/C=C/C(=O)O)c(O)c(C(=O)O)c(C)c1O2	0.54 nM
COC(=O)c1ccc(CSc2ncnc3c2oc2ccccc23)o1	2.45 nM
CCCCn1c(-c2csc(CCC)c2)n[nH]c1=S	1.28 nM
CCOC(=O)CC(=O)CSc1nc(-c2ccc3c(c2)OCO3)cc(C(F)(F)F)c1C#N	1.24 nM
C=CCn1c(=S)[nH]c2sccc2c1=O	1.53 nM
O=C(NCc1ccco1)c1ccc(=O)[nH]n1	1.06 nM
Cc1cc(SCC(=O)c2ccccc2)nc2ccccc12	1.09 nM
Cc1ccccc1NC(=O)CSc1nc(COc2ccccc2)nc2ccccc12	1.24 nM
O=c1c2ccccc2nc2n1C1(CCCCC1)Cc1ccccc1-2	0.95 nM
C/C(Cl)=C/Cn1c(SC(C)C)nc2c1c(=O)[nH]c(=O)n2C	0.95 nM
C=C(C)Cn1c(C)cc(C)c(S(=O)(=O)c2ccc(C)cc2)c1=O	1.04 nM
O=C1c2ccccc2OC2(C=Cc3ccccc3O2)N1Cc1ccccc1 (stereo not drawn)	0.31 nM
Cc1sc2ncnc(Sc3ccccc3C(=O)O)c2c1C	2.7 nM

SMILES	PGE2 EC50 with compound
Cn1c(=O)c2c(ncn2CCSS(=O)(=O)O)n(C)c1=O	0.97 nM
CCOC(=O)c1c(NC(=O)CN(CC)CC)sc2c1CCN(C(=O)OCC)C2	1.34 nM
CC(C)Oc1nc(-c2ccccc2O)nc2ccccc12	1.01 nM
O=C(COC(=O)c1ccc(S(=O)(=O)N2CCCC2)cc1)Nc1ccc(F)cc1F	1.73 nM
Cc1cc(C)cc(C(=N)c2ccccc2Cc2cccc3ccccc23)c1	1.22 nM
COc1ccc(C2=Nn3c(nnc3-c3ccccc3)SC2)cc1OC	2.63 nM
COc1ccccc1C(=O)NC(=S)Nc1cc(C(=O)O)ccc1C	1.18 nM
COc1ccc(OC)c(/C=C/C(=O)N2CCCc3ccccc32)c1	1.13 nM
CC1Cc2ccccc2N1CC(=O)NC(c1ccccc1)c1ccccc1 (stereo not drawn)	1.48 nM
O=C(Nc1ccccc1Oc1ccccc1)c1cnccn1	0.78 nM
C=CCn1c(SCC(N)=O)nc(C)cc1=O	1.07 nM
CN(CC(=O)Nc1ccccc1-c1ccccc1)C1CCCCC1	0.51 nM
C#CCn1c(S(=O)(=O)Cc2ccc(F)cc2)nc(-c2ccccc2)c1-c1ccccc1	0.95 nM
C=CCSc1ncnc2sc(C)c(C)c12	1.3 nM
CSc1nc(NCc2ccco2)c2ccccc2n1	1.3 nM
CC(=O)Nc1sc2c(c1C(c1cccs1)N1CCOCC1)CCCC2 (stereo not drawn)	0.99 nM
CC1C(c2ccccc2)N(C)C(c2ccccc2)C(C)C1(O)C#Cc1ccccc1 (stereo not drawn)	0.32 nM
CCCC(=O)C1=C(O)C(C(=O)OC)C(C)(C)CC1=Nc1cccc2ccccc12 (stereo not drawn)	1.53 nM
FC(F)(F)c1cc(-c2ccccc2)nc2nc(N3CCOCC3)sc12	1.68 nM
C[C@H](N)[C@H](O)c1ccc(O)c(O)c1	1.32 nM
Cc1ccc(CN2C(=O)CN=C(c3ccccc3)c3ccccc32)cc1	1.23 nM
CCCC(=O)N1CCCC(c2nc(-c3cccs3)no2)C1 (stereo not drawn)	1.2 nM
Cc1ccc(CN2C(=O)/C(=C\c3ccc(C(=O)NCc4cccnc4)cc3)Oc3ccccc32)cc1	0.95 nM
O=C(Nc1ccccc1-c1nc2ccccc2s1)c1ccc(Br)o1	1.02 nM
CCc1ccc(NC(=S)N(Cc2ccccc2)Cc2ccccn2)cc1	2.7 nM
COC(=O)c1ccccc1NC(=O)c1cnn2c(C(F)F)cc(C3CC3)nc12	1.17 nM
CCc1cc2cc3c(cc2nc1SCC(=O)OC(C)C)OCO3	0.7 nM

SMILES	PGE2 EC50 with compound
Fc1ccccc1Nc1nc2c(s1)CCc1ccccc1-2	1.03 nM
CCCOc1ccc(Cl)cc1CNc1ccccc1	1.22 nM
Cc1cc(C)c2c(n1)sc1c(=O)n(Cc3ccccc3Cl)nnc12	0.92 nM
CCOC(=O)c1c(NC(=O)c2ccncc2)sc(C)c1C	1 nM
C=CCSc1nc2ccsc2c(=O)n1-c1ccccc1	2.54 nM
Cc1ccc(C2CC2c2n[nH]c(=S)n2-c2ccc(C)cc2)cc1 (stereo not drawn)	1.12 nM
CCCCCCn1c(COc2ccccc2F)nnc1SCC(=O)N1c2ccccc2NC(=O)C1(C)C	0.93 nM
CCCCCCCCCc1ccc(O)cc1	0.74 nM
CC1CCN(c2nc(-c3ccncc3)nc3ccccc23)CC1	1 nM
Cc1cc(SCCC(=O)O)nc2c(C)cccc12	1.01 nM
S=c1[nH]cc(-c2ccccc2)n1-c1ccccc1	1.48 nM
CCOC(=O)C1=C(N)N2C(=O)C(C)SC2=C(C(=O)OC)C1c1ccccc1OC (stereo not drawn)	0.51 nM
COC(=O)CSc1nc(Cc2ccccc2)nc2ccccc12	2.72 nM
Cc1ccc(Cn2c(Cc3ccccc3)nc3ccccc32)cc1	2.5 nM
Nn1cnc2c(c1=O)C1(CCCCC1)Cc1ccccc1-2	0.81 nM
COC(=O)c1ccc(Oc2cc(C)nc(NCc3ccccc3)n2)cc1	0.34 nM
CCn1nnc(-c2ccccc2NC(=O)c2cc(OC)cc(OC)c2)n1	0.95 nM
CC(C)n1c2ccccc2c2nnc(SCC(=O)Nc3ccccc3C(=O)O)nc21	2.65 nM
N/C(CSc1nc(-c2ccccc2)c(-c2ccccc2)o1)=N\O	1.14 nM
CCC1COC(c2cccn2Cc2ccc(Cl)cc2)=N1 (stereo not drawn)	1.27 nM
O=c1[nH]c(SCc2cccc(Cl)c2)nc2c1CCCC2	0.77 nM
O=C(c1ccc(Br)o1)N(Cc1ccccc1)Cc1ccccc1	0.77 nM
CCCCOc1c(Br)cc(/C=N/O)cc1OCC	0.93 nM
CCCCCCn1c(SCC(C)C)nc2c1c(=O)[nH]c(=O)n2C	1.08 nM
CCCSc1ncnc2c1oc1ccccc12	0.69 nM
COC(=O)c1sc2nc(-c3ccccc3)c3c(c2c1N)CCCC3	0.33 nM
S=c1nc[nH]c2c1[nH]c1ccccc12	1.29 nM

SMILES	PGE2 EC50 with compound
CCOC(=O)CN(C(=O)CSc1nnc(Cc2ccccc2)n1-c1ccc(C)cc1)c1ccccc1	1.48 nM
COc1ccc(-c2nc3c(c(=O)[nH]c(=O)n3Cc3ccccc3)n2Cc2ccccc2)cc1	0.55 nM
c1ccc(Nc2nc(N3CCNCC3)nc(N3CCOCC3)n2)cc1	1.46 nM
COc1ccc(C(=O)NCC(=O)n2nc(C)cc2C)cc1OC	1.6 nM
CCCCC(=O)C1CCN(Cc2ccccc2)CC1	0.89 nM
CC(C)Cc1nc2sc3c(=O)[nH]cnc3c2c2c1CCC2	1.48 nM
COc1cc(-c2nc(-c3cccc(C)c3)no2)cc(OC)c1OC	1.14 nM
CCCCNc1nc(-c2ccccc2)c(C(=O)OCC)cc1C#N	0.88 nM
CC(=O)OCC(=O)[C@@]12OC(C)(C)O[C@@H]1C[C@H]1[C@H]3CC=C4C[C@@H](O)CC[C@]4(C)[C@@H]3CC[C@@]12C	0.97 nM
N#Cc1c(N)nc2c3c(sc(=N)c2c1N)NC(=O)CC3c1c(F)cccc1Cl (stereo not drawn)	0.74 nM
CCOC(=O)c1cc2sc(C)cc2n1C(C)C(=O)OCC (stereo not drawn)	0.84 nM
COc1ccccc1/C=C/C(=O)OCC(=O)Nc1ccccc1Sc1ccccc1	0.76 nM
CCC1C/C(=C/c2ccco2)C(=O)/C(=C/c2ccco2)C1 (stereo not drawn)	1.02 nM
Brc1ccc(Cn2c(-c3cncs3)nc3ccccc32)cc1	1.66 nM
O=C(O)c1cccc(NN=C2c3ccccc3-c3ccccc32)c1	0.8 nM
CCCCOc1ccc(-c2nnc(-c3ccco3)o2)cc1	1.18 nM
c1ccc2c(-c3nc(C4CCCCC4)no3)cc(-c3ccncc3)nc2c1	0.34 nM
COc1cc(NC(=S)NC(=O)c2cc(C)cc(C)c2)ccc1NC(=O)c1cccs1	2.54 nM
Cc1cccc2cc(CN(Cc3cccs3)C3(c4nnnn4C4CCCC4)CCCC3)c(=O)[nH]c12	1.08 nM
O=S(=O)(c1ccccc1)c1nc(-c2ccco2)oc1N1CCCCCC1	1.21 nM
COc1ccc(-c2nc(NC(C)=O)sc2-c2ccccc2)cc1	1.01 nM
CCc1ccc2nc(-c3cccc(C)c3)nc(SCC(=O)NCC3CCCO3)c2c1 (stereo not drawn)	2.64 nM
Cn1c(C(=O)N2CCCc3ccccc32)cc2sccc21	2.41 nM
Cc1ccc(N=N/C(=C\O)C(=O)c2ccc(Cl)cc2)cc1	0.87 nM
